# Where two headings read alike, the source gives them in different places. Starred links: 1 amine or outer side, 2 acyl side, 3 side chain; linkers in the order of their positions; H or OH if unused. Positions of bridges follow the written chain, without caps; N, C: chain ends. Non-standard residues stand in square brackets, D forms with d. Residues, ends and D or L forms follow the SMILES beside them. Chains are numbered I, II in the order given. Actinocin(9to1) = Cc1c2oc3c(C)ccc(C(=O)[*:1])c3nc-2c(C(=O)[*:2])c(N)c1=O; NMeV = CN[C@H](C(=O)O)C(C)C; Sar = CNCC(=O)O
# Tests used:
# [1] = tested on: PANC-1 human pancreatic carcinoma cell line; assay: cells
# Description: (§1) a. […] Briefly, cells were harvested and seeded in 96 well microtiter plates at a density of 5,000 cells in 150 μL of culture medium and incubated for 24 hours in drug-free medium before treatment with vehicle alone or test compounds for 72 h.
# (§2) The cytotoxic effect was measured by the MTT reduction assay, in which 3-(4,5-Dimethylthiazol-2-yl)-2,5-diphenyltetrazolium bromide, a tetrazole, which is reduced to purple formazan in the mitochondria of living cells, was used. MTT (50 μL of 1 mg/mL stock solution) was added to the wells and incubated for 8 hours at 37° C. until formazan crystals were formed. After gently removing the culture medium, DMSO was added to dissolve the insoluble purple formazan product into a colored solution. […] Results were expressed as percentage of control cell growth.
# (§3) b. In a second set of assays, A549 human tumor cells were incubated with PM01183 in combination with each of the agents mentioned above.
# (§4) As a visual aid, response values were plotted on a scatter plot with dose ratios given on the x-axis and % response values on the y-axis. […] In cases where response values at the two endpoints were approximately equivalent, points lying above or below this predicted line of additivity could be interpreted as representing antagonistic or synergistic drug interaction, respectively.
# (§5) Additional serial dilutions were prepared in serum-free culture medium to achieve a final 4× concentration. Aliquots of 50 μL of each diluted compound were added per well.
# PANC-1 was the human pancreatic carcinoma cell line selected for this assay.
# [2] = tested on: PC-3 human prostate cancer cell line; assay: cells
# Description: as §1, §2, §3, §4, §5
# PC-3 was the human prostate adenocarcinome cell line selected for this assay.
# [3] = tested on: RXF-393 human kidney carcinoma cell line; assay: cells
# Description: as §1, §2, §3, §4, §5
# [4] = tested on: MDA-MB-231 human breast adenocarcinoma cell line; assay: cells
# Description: as §1, §2, §3, §4, §5
# [5] = tested on: HT-29 human colon adenocarcinoma cell line; assay: cells
# Description: as §1, §2, §3, §4, §5
# HT-29 was the human colon adenocarcinoma cell line selected for this assay.
# [6] = tested on: A549 human lung carcinoma cell line; assay: MTT cytotoxicity assay in A549 cells: IC50 of single agents and combinations with PM01183; format: cell-based
# Description: as §5
# A549 was the human lung carcinoma cell line selected for this assay.
# as §1, §2, §3, §4
# [7] = tested on: IGROV-1 human ovarian adenocarcinoma cell line; assay: cells
# Description: as §1, §2, §3, §4, §5
# IGROV-1 was the human ovarian adenocarcinoma cell line selected for this assay.
# [8] = tested on: HGC-27 human gastric carcinoma cell line; assay: cells
# Description: as §1, §2, §3, §4, §5
# HGC-27 was the human gastric carcinoma cell line selected for this assay.
# [9] = tested on: A673 human rhabdomyosarcoma cell line; assay: cells
# Description: as §1, §2, §3, §4, §5
# A673 was the human rhabdomyosarcoma cell line selected for this assay.
# [10] = tested on: U87-MG human glioblastoma cell line; assay: cells
# Description: as §1, §2, §3, §4, §5
# U87-MG was the human glioblastoma cell line selected for this assay.
# [11] = tested on: HepG2 human hepatocellular liver carcinoma cell line; assay: MTT cytotoxicity assay in HepG2 cells: IC50 of single agents and combinations with PM01183; format: cell-based
# Description: as §1, §2, §3, §4, §5
# HepG2 was the human hepatocellular liver carcinoma cell line selected for this assay.
# [12] = tested on: SK-MEL-2 human melanoma cell line; assay: cells
# Description: as §1, §2, §3, §4, §5
# SK-MEL-2 was the human melanoma cell line selected for this assay.
# HT1080 tumors = assay: Human fibrosarcoma (HT1080) orthotopically implanted in athymic nude mice, total diameter (tumor+leg) % T/C; format: in vivo
# Description: Female athymic nude mice (Harlan Laboratories Models, S.L. (Barcelona, Spain) were utilized for all experiments. Animals were housed in individually ventilated cages, up to ten per cage in a 12-hour light-dark cycle at 21-23° C. and 40-60% humidity. The mice were allowed free access to irradiated standard rodent diet and sterilized water. Animals were acclimated for at least 5 days prior to tumor implantation with a tumor cell suspension.
# HT1080 cells were grown at 37° C. with 5% CO2 in Minimum Essential Medium Eagle (MEME). Each animal was orthotopically implanted into gastroecnemius muscle by an intramuscular injection using 26G needle and a 1 cc syringe, with 5×10^6 HT1080 cells, from in vitro passage 9, suspended in serum free medium, without antibiotics.
# Total diameter (tumor+leg) measurements were determined by using digital caliper (Fowler Sylvac, S235PAT). This total diameter and animal body weights were measured 2-3 times per week starting from the first day of treatment.
# Treatment tolerability was assessed by monitoring body weight evolution, clinical signs as well as evidences of local damage in the injection site.
# PM01183 was provided in the form of vials of lyophilized PM01183 cake which was reconstituted with water for infusion to a concentration of 0.2 mg/mL. The PM01183 stock solution was further diluted in 5% glucose solution for injection to the dosing formulation concentrations. Dacarbazine was provided in the form of a solution prepared by diluting the product with 5% glucose solution for injection to the target final concentration.
# Dose level groups were administered either as single agents or in combination.
# Comparison of the median total diameter (tumor+leg) in the treatment groups (T) to the median total diameter (tumor+leg) in the control group (T/C×100%) was used for evaluation of the antitumor efficacy.
# [13] = Homo sapiens, HepG2, 72 hours drug exposure, MTT, read-out: IC50
smiles,measurement,setting,value
"Cc1c2oc3c(C)ccc(C(=O)N[C@@H]4C(=O)N[C@H](C(C)C)C(=O)N5CCC[C@H]5C(=O)N(C)CC(=O)N(C)[C@@H](C(C)C)C(=O)O[C@@H]4C)c3nc-2c(C(=O)N[C@@H]2C(=O)N[C@H](C(C)C)C(=O)N3CCC[C@H]3C(=O)N(C)CC(=O)N(C)[C@@H](C(C)C)C(=O)O[C@@H]2C)c(N)c1=O [Actinomycin D, actinomycin D] (I: T[dV]P[Sar][NMeV] / II: T[dV]P[Sar][NMeV]; ester I:1-I:C, II:1-II:C; linker I:N-II:N via Actinocin(9to1))",IC50,"[1]; PANC-1, 72 hours drug exposure, MTT",22 nM
same,IC50,"[2]; PC-3, 72 hours drug exposure, MTT",0.01 µM
same,IC50,"[3]; RXF-393, 72 hours drug exposure, MTT",0.000709 µM
same,IC50,"[4]; MDA-MB-231, 72 hours drug exposure, MTT",0.000454 µM
same,IC50,"[5]; HT-29, 72 hours drug exposure, MTT",3.27 nM
same,IC50,"[6]; A549, 72 hours drug exposure, MTT, read-out: IC50",0.0047 µM
same,IC50,"[7]; IGROV-1, 72 hours drug exposure, MTT",0.00329 µM
same,IC50,"[8]; HGC-27, 72 hours drug exposure, MTT",0.00374 µM
same,IC50,"[9]; A673, 72 hours drug exposure, MTT",0.000956 µM
"CC(C)C[C@H](NC(=O)[C@H](Cc1ccccc1)NC(=O)c1cnccn1)B(O)O [Bortezomib, bortezomib]",IC50,"[10]; Homo sapiens, U-87 MG, 72 h",0.4 µM
same,IC50,"[1]; Homo sapiens, PANC-1, 72 h",416 nM
same,IC50,"[2]; Homo sapiens, PC-3, 72 h",0.8 µM
same,IC50,"[5]; Homo sapiens, HT-29, 72 h",6.15 nM
same,IC50,"[11]; Homo sapiens, HepG2, 72 h",0.39 µM
same,IC50,"[6]; Homo sapiens, A549, 72 h",0.0031 µM
same,IC50,"[8]; Homo sapiens, HGC-27, 72 h",0.0056 µM
"CN(C)/N=N/c1[nH]cnc1C(N)=O [Dacarbazine, dacarbazine]",IC50,"[10]; Homo sapiens, U-87 MG, 72 h",700 µM
same,IC50,"[12]; Homo sapiens, SK-MEL-2, 72 h",630 µM
same,IC50,"[3]; Homo sapiens, RXF 393, 72 h",794 µM
same,IC50,"[4]; Homo sapiens, MDA-MB-231, 72 h",19.2 µM
same,IC50,"[5]; Homo sapiens, HT-29, 72 h",24700 nM
same,% T/C on day 0,HT1080 tumors; Dacarbazine 37.5 mg/kg,100%
same,% T/C on day 2,HT1080 tumors; Dacarbazine 37.5 mg/kg,51.8%
same,% T/C on day 4,HT1080 tumors; Dacarbazine 37.5 mg/kg,54.3%
same,% T/C on day 7,HT1080 tumors; Dacarbazine 37.5 mg/kg,65.4%
same,% T/C on day 9,HT1080 tumors; Dacarbazine 37.5 mg/kg,61.3%
same,% T/C on day 11,HT1080 tumors; Dacarbazine 37.5 mg/kg,47.9%
same,% T/C on day 14,HT1080 tumors; Dacarbazine 37.5 mg/kg,55.1%
same,% T/C on day 16,HT1080 tumors; Dacarbazine 37.5 mg/kg,62.1%
same,% T/C on day 0,HT1080 tumors; Dacarbazine 112.5 mg/kg,100%
same,% T/C on day 2,HT1080 tumors; Dacarbazine 112.5 mg/kg,48.1%
same,% T/C on day 4,HT1080 tumors; Dacarbazine 112.5 mg/kg,34.3%
same,% T/C on day 7,HT1080 tumors; Dacarbazine 112.5 mg/kg,53.8%
same,% T/C on day 9,HT1080 tumors; Dacarbazine 112.5 mg/kg,48.0%
same,% T/C on day 11,HT1080 tumors; Dacarbazine 112.5 mg/kg,37.5%
same,% T/C on day 14,HT1080 tumors; Dacarbazine 112.5 mg/kg,43.2%
same,% T/C on day 16,HT1080 tumors; Dacarbazine 112.5 mg/kg,53.2%
same,% T/C on day 0,HT1080 tumors; Dacarbazine 150.0 mg/kg,100%
same,% T/C on day 2,HT1080 tumors; Dacarbazine 150.0 mg/kg,40.7%
same,% T/C on day 4,HT1080 tumors; Dacarbazine 150.0 mg/kg,28.6%
same,% T/C on day 7,HT1080 tumors; Dacarbazine 150.0 mg/kg,30.8%
same,% T/C on day 9,HT1080 tumors; Dacarbazine 150.0 mg/kg,44.0%
same,% T/C on day 11,HT1080 tumors; Dacarbazine 150.0 mg/kg,37.5%
same,% T/C on day 14,HT1080 tumors; Dacarbazine 150.0 mg/kg,44.9%
same,% T/C on day 16,HT1080 tumors; Dacarbazine 150.0 mg/kg,57.3%
same,IC50,"[6]; Homo sapiens, A549, 72 h",600 µM
same,IC50,"[7]; Homo sapiens, IGROV-1, 72 h",398 µM
same,IC50,"[8]; Homo sapiens, HGC-27, 72 h",346 µM
same,IC50,"[9]; Homo sapiens, A673, 72 h",300 µM
"CC(=O)O[C@@]12CO[C@@H]1C[C@H](O)[C@@]1(C)C(=O)[C@H](O)C3=C(C)[C@@H](OC(=O)[C@H](O)[C@@H](NC(=O)OC(C)(C)C)c4ccccc4)C[C@@](O)([C@@H](OC(=O)c4ccccc4)[C@H]21)C3(C)C [Docetaxel, docetaxel]",IC50,"[10]; Homo sapiens, U-87 MG, 72 h",0.1 µM
same,IC50,"[2]; Homo sapiens, PC-3, 72 h",0.0186 µM
same,IC50,"[3]; Homo sapiens, RXF 393, 72 h",0.000594 µM
same,IC50,"[4]; Homo sapiens, MDA-MB-231, 72 h",0.0025 µM
same,IC50,"[5]; Homo sapiens, HT-29, 72 h",0.32 nM
same,IC50,[11]; [13],0.5 µM
same,IC50,"[6]; Homo sapiens, A549, 72 hours drug exposure, MTT, read-out: IC50",0.003 µM
same,IC50,"[7]; Homo sapiens, IGROV-1, 72 h",0.0501 µM
same,IC50,"[9]; Homo sapiens, A673, 72 h",0.00065 µM
"C#Cc1cccc(Nc2ncnc3cc(OCCOC)c(OCCOC)cc23)c1 [Erlotinib, erlotinib]",IC50,"[10]; Homo sapiens, U-87 MG, 72 h",149 µM
same,IC50,"[1]; Homo sapiens, PANC-1, 72 h",416 nM
same,IC50,"[2]; Homo sapiens, PC-3, 72 h",233 µM
same,IC50,"[3]; Homo sapiens, RXF 393, 72 h",4.8 µM
same,IC50,"[4]; Homo sapiens, MDA-MB-231, 72 h",100 µM
same,IC50,"[5]; Homo sapiens, HT-29, 72 h",25600 nM
same,IC50,[11]; [13],8.6 µM
same,IC50,"[6]; Homo sapiens, A549, 72 h",10 µM
same,IC50,"[7]; Homo sapiens, IGROV-1, 72 h",7.91 µM
same,IC50,"[8]; Homo sapiens, HGC-27, 72 h",7.5 µM
same,IC50,"[9]; Homo sapiens, A673, 72 h",50 µM
"CO[C@@]12[C@H](COC(N)=O)C3=C(C(=O)C(C)=C(N)C3=O)N1C[C@@H]1N[C@@H]12 [Mitomycin C, mitomycin C]",IC50,[12],0.9 µM
same,IC50,[2],10 µM
same,IC50,[3],9 µM
same,IC50,[4],2 µM
same,IC50,[5],2000 nM
same,IC50,[6]; read-out: IC50,249 µM
same,IC50,[7],3 µM
same,IC50,[9],2.99 µM
"O=C1[O][Pt]2([NH][C@@H]3CCCC[C@H]3[NH]2)[O]C1=O [Oxaliplatin, oxaliplatin]",IC50,[10],190 µM
same,IC50,[1],184000 nM
same,IC50,[2],171 µM
same,IC50,[4],108 µM
same,IC50,[5],103000 nM
same,IC50,[11]; read-out: IC50,28 µM
same,IC50,[6]; read-out: IC50,900 µM
same,IC50,[7],8.5 µM
same,IC50,[8],106 µM
same,IC50,[9],78 µM

# Source: patent publication US11590129B2, “Combination therapy with an antitumor alkaloid” (PHARMA MAR, S.A., priority 2010, dated 2023)
